Results on 20 molecules are retold here after patent US10167276B2, “Compounds and methods for inhibiting JAK” (Dizal (Jiangsu) Pharmaceutical Co., Ltd., priority 2015, dated 2019).

pIC50: −log10 of the molar value.

For the test, the system named is STAT3 phosphorylation in NCI-H1975 cells. The test can be described thus: Cellular pSTAT3 assay in NCI-H1975 cells. It counts as cell-based. Particulars: Homo sapiens, 2 hours with compound. On the procedure:
NCI-H1975 cells were plated onto Costar #3701 96 or 384 well tissue-culture treated plates at 5,000 cells/well in 30 uL medium (RPMI, 10% FBS, supplemented with L-glutamine) and incubated overnight at 37° C. in 5% CO2. Phospho STAT3 signal was quantitated utilizing Cell Signaling Technology #7146B Pathscan […] STAT3 antibody pair kit, following manufacturer's instructions.
Cells were dosed with compound and incubated at 37° C. in 5% CO2 for 2 hours, after which medium and compound were aspirated and cells lysed with 35 uL cold 1×Cell Signaling Lysis buffer and chilled at 4° C. for 1-2 hours. Lysate was incubated on STAT3 capture plates at 4° C. overnight, washed 3× with Tris-Buffered Saline with 0.05% Tween® 20 (TBST), then […] STAT3 detection antibody was applied for 2 hours. Following washing with TBST (3×), HRP-secondary antibody was applied for 2 hours. After additional washing, signal was detected using TMB and Stop solution and read at 450 nm using Tecan Infinite M100.

Regarding `COC[C@@H](C(=O)Nc1cccc2c(-c3nc(Nc4cn(C)nc4OC)ncc3C)c[nH]c12)N1CCN(C)CC1` [Example 46, (2S)-3-methoxy-N-(3-{2-[(3-methoxy-1-methyl-1H-pyrazol-4-yl)amino]-5-methylpyrimidin-4-yl}-1H-indol-7-yl)-2-(4-methylpiperazin-1-yl)propanamide], the negative-log IC50 (pIC50) – broadly, −log10 of the IC50, conventionally taken in molar units – was 5.89.
As for `CCOc1nn(C)cc1Nc1ncc(F)c(-c2c[nH]c3c(NC(=O)[C@@H](C)N4CCN(C)CC4)cccc23)n1` [Example 39, (2R)-N-(3-{2-[(3-ethoxy-1-methyl-1H-pyrazol-4-yl)amino]-5-fluoropyrimidin-4-yl}-1H-indol-7-yl)-2-(4-methylpiperazin-1-yl)propanamide], the pIC50 is 6.72.
For `Cc1nn(C)cc1Nc1ncc(F)c(-c2c[nH]c3c(NC(=O)[C@@H](C)N4CCN(C)CC4)cccc23)n1` [Example 56, (2R)-N-(3-{2-[(1,3-dimethyl-1H-pyrazol-4-yl)amino]-5-fluoropyrimidin-4-yl}-1H-indol-7-yl)-2-(4-methylpiperaizn-1-yl)propanamide], the pIC50 is 6.90.
In the case of `COc1nn(C)cc1Nc1ncc(F)c(-c2c[nH]c3c(NC(=O)[C@@H](C)N4CCN(C)CC4)cccc23)n1` [Example 25], the pIC50 is 6.94.
For `COc1nn(C)cc1Nc1nccc(-c2c[nH]c3c(NC(=O)[C@@H](C)N4CCN(C)[C@@H](C)C4)cccc23)n1` [Example 26, (2R)-2-[(3S)-3,4-dimethylpiperazin-1-yl]-N-(3-{2-[(3-methoxy-1-methyl-1H-pyrazol-4-yl)amino]pyrimidin-4-yl}-1H-indol-7-yl)propanamide] the value was 6.59; for `COC[C@H](C(=O)Nc1cccc2c(-c3nc(Nc4cn(C)nc4C)ncc3F)c[nH]c12)N1CCN(C)CC1` [Example 53, (2R)-N-(3-{2-[(1,3-dimethyl-1H-pyrazol-4-yl)amino]-5-fluoropyrimidin-4-yl}-1H-indol-7-yl)-3-methoxy-2-(4-methylpiperazin-1-yl)propanamide], 7.25; for `CCOc1nn(C)cc1Nc1ncc(C)c(-c2c[nH]c3c(NC(=O)[C@@H](C)N4CCN(C)C[C@H]4C)cccc23)n1` [Example 23, (2R)-2-[(2R)-2,4-dimethylpiperazin-1-yl]-N-(3-{2-[(3-ethoxy-1-methyl-1H-pyrazol-4-yl)amino]-5-methylpyrimidin-4-yl}-1H-indol-7-yl)propanamide], 6.39.
For `CCOc1nn(C)cc1Nc1ncc(C)c(-c2c[nH]c3c(NC(=O)[C@H](CC)N4CCN(C)CC4)cccc23)n1` [Example 63, (2S)-N-(3-{2-[(3-ethoxy-1-methyl-1H-pyrazol-4-yl)amino]-5-methypyrimidin-4-yl}-1H-indol-7-yl)-2-(4-methylpiperazin-1-yl)butanamide] the value was 6.36; for `COc1nn(C)cc1Nc1nccc(-c2c[nH]c3c(NC(=O)[C@@H](C)N4CCN(C)C[C@@H]4C)cccc23)n1` [Example 1, (2R)-2-[(2S)-2,4-dimethylpiperazin-1-yl]-N-(3-{2-[(3-methoxy-1-methyl-1H-pyrazol-4-yl)amino]pyrimidin-4-yl}-1H-indol-7-yl)propanamide], 6.19; for `CCOc1nn(C)cc1Nc1ncc(F)c(-c2c[nH]c3c(NC(=O)[C@@H](C)N4CCN(CCOC)CC4)cccc23)n1` [Example 9, (2R)-N-(3-{2-[(3-ethoxy-1-methyl-1H-pyrazol-4-yl)amino]-5-fluoropyrimidin-4-yl}-1H-indol-7-yl)-2-[4-(2-methoxyethyl)piperazin-1-yl]propanamide], 6.23.
Under `COc1nn(C)cc1Nc1ncc(C)c(-c2c[nH]c3c(NC(=O)[C@@H](C)N4CCN(C)C[C@@H]4C)cccc23)n1` [Example 19, (2R)-2-[(2S)-2,4-dimethylpiperazin-1-yl]-N-(3-{2-[(3-methoxy-1-methyl-1H-pyrazol-4-yl)amino]-5-methylpyrimidin-4-yl}-1H-indol-7-yl)propanamide] stands 6.33; under `COCCN1CCN([C@H](C)C(=O)Nc2cccc3c(-c4nc(Nc5cn(C)nc5OC)ncc4C)c[nH]c23)CC1` [Example 17, (2R)-2-[4-(2-methoxyethyl)piperazin-1-yl]-N-(3-{2-[(3-methoxy-1-methyl-1H-pyrazol-4-yl)amino]-5-methylpyrimidin-4-yl}-1H-indol-7-yl)propanamide], 6.64; under `CCOc1nn(C)cc1Nc1ncc(Cl)c(-c2c[nH]c3c(NC(=O)[C@@H](C)N4CCN(C)CC4)cccc23)n1` [Example 40, (2R)-N-(3-{5-chloro-2-[(3-ethoxy-1-methyl-1H-pyrazol-4-yl)amino]pyrimidin-4-yl}-1H-indol-7-yl)-2-(4-methylpiperazin-1-yl)propanamide], 6.80.
With `CCOc1nn(C)cc1Nc1ncc(F)c(-c2c[nH]c3c(NC(=O)[C@@H](C)N4CCN(C)[C@@H](C)C4)cccc23)n1` [Example 11a, (2R)-2-[(3S)-3,4-dimethylpiperazin-1-yl]-N-(3-{2-[(3-ethoxy-1-methyl-1H-pyrazol-4-yl)amino]-5-fluoropyrimidin-4-yl}-1H-indol-7-yl)propanamide], the pIC50 is 6.68.
As for `COc1nn(C)cc1Nc1nccc(-c2c[nH]c3c(NC(=O)[C@@H](C)N4CCN(C)[C@H](C)C4)cccc23)n1` [Example 30, (2R)-2-[(3R)-3,4-dimethylpiperazin-1-yl]-N-(3-{2-[(3-methoxy-1-methyl-1H-pyrazol-4-yl)amino]pyrimidin-4-yl}-1H-indol-7-yl)propanamide], the negative logarithm of the IC50 (pIC50) is 6.44.
For `COc1nn(C)cc1Nc1ncc(F)c(-c2c[nH]c3c(NC(=O)[C@@H](C)N4CCN(C)[C@@H](C)C4)cccc23)n1` [Example 5, (2R)-2-[(3S)-3,4-dimethylpiperazin-1-yl]-N-(3-{5-fluoro-2-[(3-methoxy-1-methyl-1H-pyrazol-4-yl)amino]pyrimidin-4-yl}-1H-indol-7-yl)propanamide] the value was 7.06.
For `CCOc1nn(C)cc1Nc1ncc(C)c(-c2c[nH]c3c(NC(=O)[C@@H](C)N4CCN(CC)CC4)cccc23)n1` [Example 20, (2R)-N-(3-{2-[(3-ethoxy-1-methyl-1H-pyrazol-4-yl)amino]-5-methylpyrimidin-4-yl}-1H-indol-7-yl)-2-(4-ethylpiperazin-1-yl)propanamide], the negative logarithm of the IC50 (pIC50) was 6.74.
For `CCn1cc(Nc2ncc(C)c(-c3c[nH]c4c(NC(=O)[C@@H](C)N5CCN(C)CC5)cccc34)n2)c(OC)n1` [Example 58, (2R)-N-(3-{2-[(1-ethyl-3-methoxy-1H-pyrazol-4-yl)amino]-5-methylpyrimidin-4-yl}-1H-indol-7-yl)-2-(4-methylpiperazin-1-yl)propanamide] the value was 6.97; for `COc1nn(C)cc1Nc1ncc(Br)c(-c2c[nH]c3c(NC(=O)[C@@H](C)N4CCN(C)CC4)cccc23)n1` [Example 37, (2R)-N-(3-{5-bromo-2-[(3-methoxy-1-methyl-1H-pyrazol-4-yl)amino]pyrimidin-4-yl}-1H-indol-7-yl)-2-(4-methylpiperazin-1-yl)propanamide], 7.03.
As to `COc1nn(C)cc1Nc1ncc(C)c(-c2c[nH]c3c(NC(=O)[C@@H](C)N4CCN(CCO)CC4)cccc23)n1` [Example 15, (2R)-2-[4-(2-hydroxyethyl)piperazin-1-yl]-N-(3-{2-[(3-methoxy-1-methyl-1H-pyrazol-4-yl)amino]-5-methylpyrimidin-4-yl}-1H-indol-7-yl)propanamide], the pIC50 was 6.88.
